Measured values reported in patent US9833497B2, “Human originated EGF domain proteins and use of the same” (CHENGDU SOURCEBIO LIMITED-LIABILITY COMPANY, priority 2013, dated 2017).

Experiments:
Type in all cases: cell-based
Citrobacter diversus = experiment: MIC against Gram-negative bacteria: Citrobacter diversus; settings: 5×10^5 CFU/mL
How it was run: (§1)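 Bacteria grown in LB at 37° C to McFarland 0.5, resuspended and seeded at 5×10^5 CFU/mL in 96-well plates. Purified human EGF-domain proteins two-fold serially diluted, triplicate wells; cultured at 37° C, shaking 175 rpm. MIC = lowest protein concentration with no growth.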

Enterobacter cloacae = experiment: MIC against Gram-negative bacteria: Enterobacter cloacae; settings: 5×10^5 CFU/mL
How it was run: as §1

Pseudomonas aeruginosa = experiment: MIC against Gram-negative bacteria: Pseudomonas aeruginosa; settings: 5×10^5 CFU/mL
How it was run: as §1

Proteus mirabilis = experiment: MIC against Gram-negative bacteria: Proteus mirabilis; settings: 5×10^5 CFU/mL
How it was run: as §1

E. coli DH5α = experiment: Antibacterial activity: MIC and growth curve against E. coli DH5α in 96-well plate; settings: minimal inhibitory concentration against E. coli DH5α; 96-well plate, 5×10^5 CFU/mL, 37° C., judged after 8 h
How it was run: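 MIC taken as lowest protein level with no bacterial growth, tracked by A600 every 30 min during 37 °C, 175 rpm culture. Two-fold protein series 50-12.5 μg/mL final, triplicate wells, against 5×10^5 CFU/mL of LB-washed mid-log cells.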

Moraxella catarrhalis = experiment: MIC against Gram-negative bacteria: Moraxella catarrhalis; settings: 5×10^5 CFU/mL
How it was run: as §1

E. coli BL21 = experiment: MIC against Gram-negative bacteria: E. coli BL21; settings: 5×10^5 CFU/mL
How it was run: as §1

Proteus vulgaris = experiment: MIC against Gram-negative bacteria: Proteus vulgaris; settings: 5×10^5 CFU/mL
How it was run: as §1

Klebsiella pneumonia = experiment: MIC against Gram-negative bacteria: Klebsiella pneumonia; settings: 5×10^5 CFU/mL
How it was run: as §1

Aeromonas hydrophila = experiment: MIC against Gram-negative bacteria: Aeromonas hydrophila; settings: 5×10^5 CFU/mL
How it was run: as §1

Serratia marcescens = experiment: MIC against Gram-negative bacteria: Serratia marcescens; settings: 5×10^5 CFU/mL
How it was run: as §1

[1] = Citrobacter diversus, 96-well plate, 37° C., 10 h
[2] = Enterobacter cloacae, 96-well plate, 37° C., 10 h
[3] = Pseudomonas aeruginosa, 96-well plate, 37° C., 10 h
[4] = Proteus mirabilis, 96-well plate, 37° C., 10 h
[5] = Moraxella catarrhalis, 96-well plate, 37° C., 10 h
[6] = Proteus vulgaris, 96-well plate, 37° C., 10 h
[7] = Klebsiella pneumonia, 96-well plate, 37° C., 10 h
[8] = Aeromonas hydrophila, 96-well plate, 37° C., 10 h
[9] = Serratia marcescens, 96-well plate, 37° C., 10 h
[10] = 10 h cultivation at 37° C., two-fold serial dilution

“PRT1412 (RASCPVLCSGNGQYMKGRCLCHSGWKGAECD; listed as Homo sapiens)” was tested. Which “MIC against C. diversus” value (Citrobacter diversus; Citrobacter diversus, 10 h cultivation at 37° C.) did it give?
The value was 25 µg/mL.

What about the “MIC against E. cloacae” value (Enterobacter cloacae; Enterobacter cloacae, 10 h cultivation at 37° C.) of the same substance?
Its value is 25 µg/mL.

What about the “MIC against P. aeruginosa” value (Pseudomonas aeruginosa; Pseudomonas aeruginosa, 10 h cultivation at 37° C.) of the same substance?
The value was 25 µg/mL.

What about the “MIC against P. mirabilis” value (Proteus mirabilis; Proteus mirabilis, 10 h cultivation at 37° C.) of the same substance?
The value was 25 µg/mL.

What about the MIC (E. coli DH5α) of the same substance?
Its MIC is 25 µg/mL.

And the “MIC against M. catarrhalis” value (Moraxella catarrhalis; Moraxella catarrhalis, 10 h cultivation at 37° C.)?
The value was 12.5 µg/mL.

And the “MIC against E. coli BL21” value (E. coli BL21; 10 h cultivation at 37° C.)?
Its value is 50 µg/mL.

What about the “MIC against P. vulgaris” value (Proteus vulgaris; Proteus vulgaris, 10 h cultivation at 37° C.) of the same substance?
The value was 50 µg/mL.

What about the “MIC against K. pneumonia” value (Klebsiella pneumonia; Klebsiella pneumonia, 10 h cultivation at 37° C.) of the same substance?
The value was 12.5 µg/mL.

What about the “MIC against A. hydrophila” value (Aeromonas hydrophila; Aeromonas hydrophila, 10 h cultivation at 37° C.) of the same substance?
Its value is 50 µg/mL.

And the “MIC against S. marcescens” value (Serratia marcescens; Serratia marcescens, 10 h cultivation at 37° C.)?
The value was 25 µg/mL.

With “PRT1204 (DIDECGTGRHSCANDTICFNLDGGYDCRCPHGKNCT; listed as Homo sapiens)” as the substance, how does the “MIC against C. diversus” value (Citrobacter diversus; [1]) read?
The value was 25 µg/mL.

And the “MIC against E. cloacae” value (Enterobacter cloacae; [2])?
Its value is 12.5 µg/mL.

And the “MIC against P. aeruginosa” value (Pseudomonas aeruginosa; [3])?
The value was 50 µg/mL.

What about the “MIC against P. mirabilis” value (Proteus mirabilis; [4]) of the same substance?
The value was 12.5 µg/mL.

And the MIC (E. coli DH5α)?
Its MIC is 100 µg/mL.

And the “MIC against M. catarrhalis” value (Moraxella catarrhalis; [5])?
Its value is 25 µg/mL.

And the “MIC against E. coli BL21” value (E. coli BL21; 96-well plate, 37° C., 10 h)?
Its value is 25 µg/mL.

And the “MIC against P. vulgaris” value (Proteus vulgaris; [6])?
Its value is 50 µg/mL.

And the “MIC against K. pneumonia” value (Klebsiella pneumonia; [7])?
Its value is 25 µg/mL.

What about the “MIC against A. hydrophila” value (Aeromonas hydrophila; [8]) of the same substance?
The value was 50 µg/mL.

And the “MIC against S. marcescens” value (Serratia marcescens; [9])?
Its value is 25 µg/mL.

Which “MIC (μg/mL) C. diversus” value (Citrobacter diversus; C. diversus, 10 h cultivation at 37° C.) does the source give for “PRT820 (YGDNCRHSCLCQNGGTCDPVSGHCACPEGWAGLACE; listed as Homo sapiens)” here?
The value was 12.5 µg/mL.

And the “MIC (μg/mL) E. cloacae” value (Enterobacter cloacae; E. cloacae, 10 h cultivation at 37° C.)?
Its value is 12.5 µg/mL.

And the “MIC (μg/mL) P. aeruginosa” value (Pseudomonas aeruginosa; P. aeruginosa, 10 h cultivation at 37° C.)?
The value was 12.5 µg/mL.

What about the “MIC (μg/mL) P. mirabilis” value (Proteus mirabilis; P. mirabilis, 10 h cultivation at 37° C.) of the same substance?
The value was 12.5 µg/mL.

And the MIC (E. coli DH5α)?
Its MIC is 12.5 µg/mL.

What about the “MIC (μg/mL) M. catarrhalis” value (Moraxella catarrhalis; M. catarrhalis, 10 h cultivation at 37° C.) of the same substance?
Its value is 50 µg/mL.

And the “MIC (μg/mL) E. coli BL21” value (E. coli BL21; 10 h cultivation at 37° C.)?
Its value is 50 µg/mL.

What about the “MIC (μg/mL) P. vulgaris” value (Proteus vulgaris; P. vulgaris, 10 h cultivation at 37° C.) of the same substance?
The value was 12.5 µg/mL.

And the “MIC (μg/mL) K. pneumonia” value (Klebsiella pneumonia; K. pneumonia, 10 h cultivation at 37° C.)?
The value was 50 µg/mL.

What about the “MIC (μg/mL) A. hydrophila” value (Aeromonas hydrophila; A. hydrophila, 10 h cultivation at 37° C.) of the same substance?
The value was 50 µg/mL.

What about the “MIC (μg/mL) S. marcescens” value (Serratia marcescens; S. marcescens, 10 h cultivation at 37° C.) of the same substance?
Its value is 25 µg/mL.

What does the source list for “PRT125 (CTGHCAHPRLPCFHGGRCVERYSYYTCDCDLTAFDGPYCN; listed as Homo sapiens)”?
MIC (μg/mL) C. diversus (Citrobacter diversus; [1]): 25 µg/mL; MIC (μg/mL) E. cloacae (Enterobacter cloacae; [2]): 12.5 µg/mL; MIC (μg/mL) P. aeruginosa (Pseudomonas aeruginosa; [3]): 12.5 µg/mL; MIC (μg/mL) P. mirabilis (Proteus mirabilis; [4]): 25 µg/mL; MIC (E. coli DH5α): 100 µg/mL; MIC (μg/mL) M. catarrhalis (Moraxella catarrhalis; [5]): 12.5 µg/mL; MIC (μg/mL) E. coli BL21 (E. coli BL21; 96-well plate, 37° C., 10 h): 12.5 µg/mL; MIC (μg/mL) P. vulgaris (Proteus vulgaris; [6]): 50 µg/mL; MIC (μg/mL) K. pneumonia (Klebsiella pneumonia; [7]): 12.5 µg/mL; MIC (μg/mL) A. hydrophila (Aeromonas hydrophila; [8]): 50 µg/mL; MIC (μg/mL) S. marcescens (Serratia marcescens; [9]): 25 µg/mL

What does the source list for “PRT24 (ELDLCYSNPCRNGGACARREGGYTCVCRPRFTGEDCE; listed as Homo sapiens)”?
MIC (μg/mL) C. diversus (Citrobacter diversus; [1]): 25 µg/mL; MIC (μg/mL) E. cloacae (Enterobacter cloacae; [2]): 12.5 µg/mL; MIC (μg/mL) P. aeruginosa (Pseudomonas aeruginosa; [3]): 12.5 µg/mL; MIC (μg/mL) P. mirabilis (Proteus mirabilis; [4]): 25 µg/mL; MIC (E. coli DH5α): 12.5 µg/mL; MIC (μg/mL) M. catarrhalis (Moraxella catarrhalis; [5]): 12.5 µg/mL; MIC (μg/mL) E. coli BL21 (E. coli BL21; 96-well plate, 37° C., 10 h): 25 µg/mL; MIC (μg/mL) P. vulgaris (Proteus vulgaris; [6]): 12.5 µg/mL; MIC (μg/mL) K. pneumonia (Klebsiella pneumonia; [7]): 25 µg/mL; MIC (μg/mL) A. hydrophila (Aeromonas hydrophila; [8]): 12.5 µg/mL; MIC (μg/mL) S. marcescens (Serratia marcescens; [9]): 25 µg/mL

With “PRT1152 (HASPCSLMKCGNGGTCIESGTSVYCNCTTGWKGSFCT; listed as Homo sapiens)” as the substance, how does the “MIC C. diversus” value (Citrobacter diversus; [10]) read?
Its value is 12.5 µg/mL.

And the “MIC E. cloacae” value (Enterobacter cloacae; [10])?
The value was 12.5 µg/mL.

And the “MIC P. aeruginosa” value (Pseudomonas aeruginosa; [10])?
The value was 12.5 µg/mL.

What about the “MIC P. mirabilis” value (Proteus mirabilis; [10]) of the same substance?
The value was 12.5 µg/mL.

What about the MIC (E. coli DH5α) of the same substance?
Its MIC is 12.5 µg/mL.

And the “MIC M. catarrhalis” value (Moraxella catarrhalis; [10])?
The value was 12.5 µg/mL.

And the “MIC E. coli BL21” value (E. coli BL21; [10])?
The value was 25 µg/mL.

What about the “MIC P. vulgaris” value (Proteus vulgaris; [10]) of the same substance?
Its value is 25 µg/mL.

And the “MIC K. pneumonia” value (Klebsiella pneumonia; [10])?
The value was 25 µg/mL.

What about the “MIC A. hydrophila” value (Aeromonas hydrophila; [10]) of the same substance?
The value was 12.5 µg/mL.

And the “MIC S. marcescens” value (Serratia marcescens; [10])?
Its value is 50 µg/mL.
